Data from patent publication US20140323577A1, “METHODS FOR REDUCING THE RISK OF CONVERSION TO CLINICALLY DEFINITE MULTIPLE SCLEROSIS” (Sanofi-Aventis U.S. LLC, priority 2013, published 2014).

What was measured:
Assay type in all cases: in vivo, human
[1] = system: patients with a first clinical episode suggestive of multiple sclerosis; assay: Time to conversion to DMS (dissemination of MRI lesions in time or a relapse), same study; conditions: for Hazard ratio (95% CI), time to conversion to DMS: Cox proportional hazard model; for Number of patients with conversion to DMS / Number of patients who were censored (time to conversion to DMS) / Number of patients with conversion to DMS: Dissemination of MRI lesion in time / Number of patients with conversion to DMS: Relapse: number (%); for Number of patients who were censored (time to conversion to DMS) / Number of patients with conversion to DMS: Dissemination of MRI lesion in time / Number of patients with conversion to DMS: Relapse / Kaplan-Meier estimates of probability of conversion to DMS (95% CI): ITT
Description: (§1) Methodology: This was a multi-center, multinational, randomized, placebo-controlled, double blind, parallel group (3 groups) study stratified by center and baseline monofocal/multifocal status.
(§2) Diagnosis and criteria for inclusion: Patients with a first acute or subacute, well-defined neurological event consistent with demyelination with onset of MS symptoms occurring within 90 days of randomization; and abnormal MRI with 2 or more T2 lesions at least 3 mm in diameter that are characteristic of MS.
(§3) Statistical methods: Analysis population: Efficacy analyses were based on the intent-to-treat (ITT) population consisting of all randomized patients, as randomized, who had at least 1 day exposure to study medication.
(§4) The key secondary endpoint was analyzed using the same Cox regression model. ARR was analyzed using a Poisson regression model with robust error variance including the number of confirmed relapses with their onset between randomization date and last dose date as the response variable, treatment, region, and baseline monofocal/multifocal status as covariates, and log transformed standardized exposure duration as an offset variable.
(§5) Multiplicity procedure: Step down approach was used for multiplicity adjustment for 2 doses of teriflunomide and the primary and key secondary endpoints. Treatment comparison of teriflunomide 14 mg vs. placebo in time to conversion to CDMS was tested at 5% significance level. If significant, comparison of teriflunomide 7 mg vs. placebo in time to conversion to CDMS was tested at 5% significance level. If significant, comparison of teriflunomide 14 mg vs. placebo for the key secondary endpoint was tested at 5% significance level. If significant, comparison of teriflunomide 7 mg vs. placebo for the key secondary endpoint was tested at 5% significance level.

[2] = system: patients with a first clinical episode suggestive of multiple sclerosis; assay: Time to conversion to CDMS, randomized double-blind placebo-controlled study; conditions: for Hazard ratio (95% CI), time to conversion to CDMS: Cox proportional hazard model; for Number of patients who were censored (time to conversion to CDMS) / Number of patients with conversion to CDMS: number (%); for Kaplan-Meier estimates of probability of conversion to CDMS (95% CI): ITT
Description: as §1, §2
Efficacy/pharmacodynamics: The primary efficacy variable was time to CDMS defined by the occurrence of a relapse: new neurological abnormality separated by at least 30 days from onset of a preceding clinical event, present for at least 24 hours and occurring in the absence of fever or known infection.
as §3
Efficacy analysis: The primary analysis of time to conversion to CDMS was performed using Cox regression model with treatment, region, and baseline monofocal/multifocal status as independent variables. The assessment of efficacy was based on (pairwise) hazard rate ratio comparisons of each active dose of teriflunomide versus placebo. Two-sided 95% confidence intervals of the hazard rates ratio were provided for each teriflunomide treatment effect estimate versus placebo. The log-rank test was provided as supportive.
as §5

[3] = system: patients with a first clinical episode suggestive of multiple sclerosis; assay: Study treatment discontinuation and tolerability, same study
Experimental: as §1
454 (73.9%) patients completed 108 weeks of study treatment or entered the extension: 71.6% in the placebo group, 73.2% in the teriflunomide 7 mg group, and 75.5% in the teriflunomide 14 mg group. […] The mean (±SD) age was 32.1 (±8.5) years and the study population was primarily Caucasian (96.1%).

[4] = system: patients with a first clinical episode suggestive of multiple sclerosis; assay: Confirmed MS relapse / annualized relapse rate (ARR), same study; conditions: for Unadjusted annualized relapses rate / Total number of relapses / Number of patients with ≧1 relapses: No / Number of relapses: 0 (patients) / Number of relapses: 1 (patients) / Number of relapses: 2 (patients) / Number of relapses: >=3 (patients): ITT; for Number of patients with ≧1 relapses: Yes / Number of patients with ≧1 relapses: No / Number of relapses: 0 (patients) / Number of relapses: 1 (patients) / Number of relapses: 2 (patients) / Number of relapses: >=3 (patients): number (%); for Risk reduction of on-treatment adjusted ARR relative to placebo: non-statistically significant
Description: as §1, §2, §3, §4

[5] = 14 mg once daily, ITT (N = 214)
[6] = 7 mg once daily, randomized population (N = 205)
[7] = 14 mg once daily, randomized population (N = 216)

C/C(O)=C(\C#N)C(=O)Nc1ccc(C(F)(F)F)cc1 [teriflunomide, (Z)-2-cyano-3-hydroxy-but-2-enoic acid-(4′-trifluoromethylphenyl)-amide]
Hazard ratio (95% CI), time to conversion to DMS ([1]; 7 mg once daily vs placebo, P-value 0.0020, log-rank P 0.0028): 0.686
Number of patients with conversion to DMS ([1]; 7 mg once daily, ITT (N = 203)): 125 (61.6%)
Number of patients who were censored (time to conversion to DMS) ([1]; 7 mg once daily): 78 (38.4%)
Number of patients with conversion to DMS: Dissemination of MRI lesion in time ([1]; 7 mg once daily): 110 (54.2%)
Number of patients with conversion to DMS: Relapse ([1]; 7 mg once daily): 15 (7.4%)
Kaplan-Meier estimates of probability of conversion to DMS (95% CI) ([1]; 7 mg once daily, at 24 weeks): 0.457
Kaplan-Meier estimates of probability of conversion to DMS (95% CI) ([1]; 7 mg once daily, at 48 weeks): 0.573
Estimated cumulative rate of conversion to DMS (dissemination of MRI lesions in time or confirmed relapse) ([1]; 7 mg once daily, at 108 weeks): 73.3%
Kaplan-Meier estimates of probability of conversion to DMS (95% CI) ([1]; 7 mg once daily, at 108 weeks): 0.733
Reduction of the risk of conversion to DMS (dissemination of MRI lesions in time or a relapse) compared to placebo ([1]; 7 mg once daily, p=0.0020): 31.4%
Hazard ratio (95% CI), time to conversion to DMS ([1]; 14 mg once daily vs placebo, P-value 0.0003, log-rank P 0.0002): 0.651
Number of patients with conversion to DMS [1, 5]: 136 (63.6%)
Number of patients who were censored (time to conversion to DMS) ([1]; 14 mg once daily): 78 (36.4%)
Number of patients with conversion to DMS: Dissemination of MRI lesion in time ([1]; 14 mg once daily): 111 (51.9%)
Number of patients with conversion to DMS: Relapse ([1]; 14 mg once daily): 25 (11.7%)
Kaplan-Meier estimates of probability of conversion to DMS (95% CI) ([1]; 14 mg once daily, at 24 weeks): 0.460
Kaplan-Meier estimates of probability of conversion to DMS (95% CI) ([1]; 14 mg once daily, at 48 weeks): 0.578
Estimated cumulative rate of conversion to DMS (dissemination of MRI lesions in time or confirmed relapse) ([1]; 14 mg once daily, at 108 weeks): 71.5%
Kaplan-Meier estimates of probability of conversion to DMS (95% CI) ([1]; 14 mg once daily, at 108 weeks): 0.715
Reduction of the risk of conversion to DMS (dissemination of MRI lesions in time or a relapse) compared to placebo ([1]; 14 mg once daily, p=0.0003): 34.9%
Hazard ratio (95% CI), time to conversion to CDMS ([2]; 7 mg once daily vs placebo, P-value 0.0271, log-rank P 0.0422): 0.628
Number of patients who were censored (time to conversion to CDMS) ([2]; 7 mg once daily, ITT (N = 203)): 164 (80.8%)
Number of patients with conversion to CDMS ([2]; 7 mg once daily, ITT population (N = 203)): 39 (19.2%)
Kaplan-Meier estimates of probability of conversion to CDMS (95% CI) ([2]; 7 mg once daily, at 24 weeks): 0.087
Kaplan-Meier estimates of probability of conversion to CDMS (95% CI) ([2]; 7 mg once daily, at 48 weeks): 0.142
Estimated cumulative rate of conversion to CDMS ([2]; 7 mg once daily, at 108 weeks): 27.6%
Kaplan-Meier estimates of probability of conversion to CDMS (95% CI) ([2]; 7 mg once daily, at 108 weeks): 0.276
Reduction of the risk of conversion to CDMS compared to placebo ([2]; 7 mg once daily, p=0.0271): 37.2%
Hazard ratio (95% CI), time to conversion to CDMS ([2]; 14 mg once daily vs placebo, P-value 0.0087, log-rank P 0.0133): 0.574
Number of patients who were censored (time to conversion to CDMS) [2, 5]: 176 (82.2%)
Number of patients with conversion to CDMS ([2]; 14 mg once daily, ITT population (N = 214)): 38 (17.8%)
Kaplan-Meier estimates of probability of conversion to CDMS (95% CI) ([2]; 14 mg once daily, at 24 weeks): 0.090
Kaplan-Meier estimates of probability of conversion to CDMS (95% CI) ([2]; 14 mg once daily, at 48 weeks): 0.137
Estimated cumulative rate of conversion to CDMS ([2]; 14 mg once daily, at 108 weeks): 24.0%
Kaplan-Meier estimates of probability of conversion to CDMS (95% CI) ([2]; 14 mg once daily, at 108 weeks): 0.240
Reduction of the risk of conversion to CDMS compared to placebo ([2]; 14 mg once daily, p=0.0087): 42.6%
Study treatment discontinuation: Adverse event (number of patients) [3, 6]: 25
Study treatment discontinuation: Death (number of patients) [3, 6]: 0
Study treatment discontinuation: Lack of efficacy [3, 6]: (2.9%)
Study treatment discontinuation: Lack of efficacy (number of patients) [3, 6]: 6
Study treatment discontinuation: Progressive Disease [3, 6]: (0.5%)
Study treatment discontinuation: Progressive Disease (number of patients) [3, 6]: 1
Study treatment discontinuation: Adverse event (number of patients) [3, 7]: 18
Study treatment discontinuation: Death (number of patients) [3, 7]: 0
Study treatment discontinuation: Lack of efficacy [3, 7]: (5.6%)
Study treatment discontinuation: Lack of efficacy (number of patients) [3, 7]: 12
Study treatment discontinuation: Progressive Disease (number of patients) [3, 7]: 0
Tolerability / safety profile ([3]; both doses (7 mg and 14 mg once daily)): well tolerated with a manageable safety profile
Adjusted annualized relapse rate, Relative risk (95% CI) ([4]; 7 mg once daily vs placebo, P-value 0.0541): 0.669
Adjusted annualized relapse rate, Risk difference (95% CI) ([4]; 7 mg once daily vs placebo, P-value 0.0576): −0.094
Unadjusted annualized relapses rate ([4]; 7 mg once daily): 0.209
Number of patients with ≧1 relapses: Yes ([4]; 7 mg once daily, ITT (N = 203)): 42 (20.7%)
Total number of relapses ([4]; 7 mg once daily, 258.5 patient-years followed): 54
Number of patients with ≧1 relapses: No ([4]; 7 mg once daily): 161 (79.3%)
Number of relapses: 0 (patients) ([4]; 7 mg once daily): 161 (79.3%)
Number of relapses: 1 (patients) ([4]; 7 mg once daily): 33 (16.3%)
Number of relapses: 2 (patients) ([4]; 7 mg once daily): 7 (3.4%)
Number of relapses: >=3 (patients) ([4]; 7 mg once daily): 2 (1.0%)
Risk reduction of on-treatment adjusted ARR relative to placebo ([4]; 7 mg once daily, p=0.0541): 33.1%
Adjusted annualized relapse rate, Relative risk (95% CI) ([4]; 14 mg once daily vs placebo, P-value 0.0579): 0.681
Adjusted annualized relapse rate, Risk difference (95% CI) ([4]; 14 mg once daily vs placebo, P-value 0.0628): −0.091
Unadjusted annualized relapses rate ([4]; 14 mg once daily): 0.208
Number of patients with ≧1 relapses: Yes [4, 5]: 45 (21.0%)
Total number of relapses ([4]; 14 mg once daily, 288.9 patient-years followed): 60
Number of patients with ≧1 relapses: No ([4]; 14 mg once daily): 169 (79.0%)
Number of relapses: 0 (patients) ([4]; 14 mg once daily): 169 (79.0%)
Number of relapses: 1 (patients) ([4]; 14 mg once daily): 33 (15.4%)
Number of relapses: 2 (patients) ([4]; 14 mg once daily): 10 (4.7%)
Number of relapses: >=3 (patients) ([4]; 14 mg once daily): 2 (0.9%)
Risk reduction of on-treatment adjusted ARR relative to placebo ([4]; 14 mg once daily, p=0.0579): 31.9%
